Results published in article PMC12214830, “The human RIF1-Long isoform interacts with BRCA1 to promote recombinational fork repair under DNA replication stress” (Nature Communications, 2025).

How the values were obtained:
Assay type in all cases: cell-based, human
micronuclei = micronuclei frequency, HeLa cells; conditions: HeLa RIF1-L vs RIF1-S or RIF1-L-APKF; HU 4 mM 24 h
Description: For proximity ligation assays and immunofluorescence signal intensity measurements, when comparing between two samples, statistical significance of differences was calculated by Mann-Whitney test for non-parametric distributions using GraphPad Prism software (v.9). When comparing among three or more samples, p values were calculated by Kruskal-Wallis test for non-parametric distributions with Dunn’s multiple comparisons using GraphPad Prism software (v.9). For RIF1 foci formation analysis (Fig. 6B), p values were calculated by two-tailed Student’s t test. For nuclear BRCA1 intensity fold change analyses (Fig. 6C, D), p values were calculated by two-tailed one-sample t test using GraphPad Prism software (v.9). For RAD51 foci formation analyses (Fig. 7B, E and Supplementary Fig. 7B), p values were calculated by chi-square test. For HR Reporter assay analysis (Fig. 7G and Supplementary Fig. 7L), p values were calculated by two-tailed paired Student’s t test. For micronuclei frequency analysis (Fig. 7H), p values were calculated by one-tailed paired Student’s t test. All Student’s t tests were performed with Excel T.TEST function. Chi-square tests were performed with the online Chi-square test calculator at https://www.socscistatistics.com/tests/chisquare2/default2.aspx. Sample number n for all box-and-whisker plots and dot plots are listed in Supplementary Data 1.

ssDNA = test: native IdU immunofluorescence (ssDNA), RPE-1 cells; conditions: HU 4 mM 24 h
Description: For detection of iododeoxyuridine (IdU) by immunofluorescence, cells were grown in the presence of 10 µM IdU for 72 h (with Morpholinos added at 24 h and HU added at 48 h). Cells were then permeabilized with 0.5% TritonX-100 in PBS for 7 min on ice, fixed with 4% w/v formaldehyde solution for 15 min at RT, and treated again with 0.5% TritonX-100 in PBS for 10 min on ice. Coverslips were immunostained as described above.

[1] = system: GFP-RIF1-L / GFP-RIF1-L-pp1bs foci; test: GFP-RIF1 foci formation, HeLa cells; conditions: HU 4 mM 24 h
Description: Cells were grown on glass coverslips and treated as desired. Cells were then permeabilized with 0.5% TritonX-100 in PBS for 7 min on ice, and fixed with 4% w/v formaldehyde solution (Sigma HT5012) for 10 min at room temperature (RT). After fixation, coverslips were blocked with 3% BSA in PBS (RT, 1 h), incubated with primary antibodies (RT, 2 h), washed with PBS three times and incubated with secondary antibodies (RT, 1 h). Primary antibodies used for immunofluorescence include anti-γH2A.X (20E3) (Cell Signalling Technology, 9718. 1:500); anti-RPA32/RPA2 (9H8) (Abcam, ab2175. 1:200); anti-RAD51 (H92) (Santa Cruz Biotechnology, sc-8349. 1:100); anti-BrdU (B44) (BD Biosciences, 347580. 1:100); Coverslips were then mounted on glass slides with mounting medium with DAPI. Images were captured by either standard (Zeiss Axio Imager) or confocal (Zeiss LSM-880) microscopy. Fluorescence signal intensities within each nucleus were analysed by CellProfiler software with custom-made pipelines. Co-localisation analyses were performed with custom-made CellProfiler pipelines. Briefly, nuclei were identified and used to create masks. […]

RIF1-L phosphoS2265 = test: Western blot, RIF1-L phosphoS2265, HeLa cells; conditions: HU 4 mM 24 h
Description: Cells were harvested in 10 mM Tris-HCl pH 7.5, 2 mM EDTA buffer and lysed with laemmli sample buffer (Bio-Rad, 1610737, supplemented with 5% β-mercaptoethanol). Samples were heated at 95 °C for 15 min and centrifuged at 13,000 × g for 15 min. Protein concentrations were measured by RC DC Protein Assay (Bio-Rad, 5000122). Equal amounts of total proteins for each sample were separated in Mini-PROTEAN TGX Stain-free Precast Gels (Bio-Rad) by SDS-PAGE. Gels were at this stage imaged with the ChemiDoc Touch Imaging System (Bio-Rad) using the ‘Protein gel – Stain free’ module to obtain stain-free gel images. Proteins on gel were transferred to PVDF membranes (Bio-Rad, 1704274) using the Trans-Blot Turbo Blotting System (Bio-Rad). Membranes were blocked in 3% BSA in TBS-T (1x TBS supplemented with 0.1% Tween-20) at RT for 1 h, followed by incubation with primary antibodies overnight at 4 °C. Membranes were washed with TBS-T and then incubated with secondary antibodies for 1 h at RT. The blots were developed with Clarity ECL reagents (Bio-Rad, 1705060) and imaged with the ChemiDoc Touch Imaging System (Bio-Rad). Primary antibodies used for western blotting include anti-RIF1 (Bethyl Laboratories, A300-568A. 1:5000); anti-RIF1-L-Phospho-S2265 (amsbio, custom. 1:5000); anti-BRCA1 (D-9) (Santa Cruz Biotechnology, sc-6954. 1:1000); anti-BARD1 (Bethyl Laboratories, A300-263A. 1:1000); anti-53BP1 (Novus Biologicals, NB100-94. 1:5000); anti-PP1α (G4) (Santa Cruz Biotechnology, sc-271762. 1:1000); anti-Tubulin (YOL1/34) (Santa Cruz Biotechnology, sc-53030. 1:4000); anti-FLAG (M2) (Sigma-Aldrich, F1804. 1:2000); anti-GFP (Chromotek, 3h9. 1:2000); anti-RFP (Chromotek, 5f8. 1:2000). Uncropped and unprocessed Western Blot images are provided in the Source Data file.

NC(=O)NO [HU, hydroxyurea]
frequency of micronuclei following HU (micronuclei): RIF1-L cells exhibited a lower frequency of micronuclei following HU treatment than RIF1-S or RIF1-L-APKF cells | native IdU staining (ssDNA): both increased upon HU treatment | HU-treated cells with distinct GFP-RIF1-L-pp1bs foci ([1]; HeLa GFP-RIF1-L-pp1bs): ~ 70% | HU-treated cells with clear GFP-RIF1-L foci ([1]; HeLa GFP-RIF1-L): ~ 10% | RIF1-L phosphoS2265 western blot signal (RIF1-L phosphoS2265): reduced RIF1-L phosphoS^2265 signal
